Laboratory results as given in ChEMBL document CHEMBL5344411, “Phenotypic screening-based drug discovery of furan-2-carboxylic acid derivatives for the amelioration of type 2 diabetes mellitus (T2DM)” (Eur J Med Chem, 2023).
The source made the active and inactive calls. No cut-off for these calls is given here.

What was measured:
Hepatocyte [1] = assay: Inhibition of gluconeogenesis in Sprague-Dawley rat hepatocytes at 1 uM incubated for 1.5 hrs followed by sodium pyruvate and sodium lactate addition and measured after 4 hrs by colorimetric analysis relative to control; type: functional; conditions: time 5.5 hrs
Mus musculus = assay: Inhibition of gluconeogenesis in CD-1 mouse assessed as decrease in blood glucose level at 50 mg/kg administered via gavage at 1 hr prior to pyruvate sodium challenge and measured for 2 hrs by pyruvate tolerance test; type: functional, organism-based; conditions: time 3.0 hrs
Hepatocyte [2] = assay: Inhibition of gluconeogenesis in Sprague-Dawley rat hepatocytes at 0.3 uM incubated for 1.5 hrs followed by sodium pyruvate and sodium lactate addition and measured after 4 hrs by colorimetric analysis relative to control; type: functional; conditions: time 5.5 hrs
Hepatocyte [3] = assay: Inhibition of gluconeogenesis in Sprague-Dawley rat hepatocytes at 3 uM incubated for 1.5 hrs followed by sodium pyruvate and sodium lactate addition and measured after 4 hrs by colorimetric analysis relative to control; type: functional; conditions: time 5.5 hrs
Hepatocyte [4] = assay: Inhibition of gluconeogenesis in Sprague-Dawley rat hepatocytes at 10 uM incubated for 1.5 hrs followed by sodium pyruvate and sodium lactate addition and measured after 4 hrs by colorimetric analysis relative to control; type: functional; conditions: time 5.5 hrs

SMILES	fold change (FC) (Hepatocyte [4])	other results
COc1cc(Cl)ccc1OCc1ccc(C(=O)O)o1	0.33	fold change (FC) (Hepatocyte [1]): 0.78; inhibition (Mus musculus): Active; fold change (FC) (Hepatocyte [2]): 1.02; fold change (FC) (Hepatocyte [3]): 0.51
C=CCc1ccc(OCc2ncc(C(=O)O)s2)c(OC)c1	1.33	–
C=CCc1ccc(OCc2ccc(C(=O)NCCO)o2)c(OC)c1	0.82	–
CCCc1ccc(OCc2ccc(C(=O)O)o2)c(OC(C)C)c1	1.25	–
C=CCc1ccc(OCc2ccc(C(=O)O)o2)cc1	0.6	–
CCCc1ccc(OC)c(OCc2ccc(C(=O)O)o2)c1	1.18	–
C=CCc1ccc(OCc2ccc(C(=O)O)s2)c(OC)c1	1.05	–
COc1ccccc1OCc1ccc(C(=O)O)o1	0.99	–
COc1cc(/C=C/C(=O)N(C)C)ccc1OCc1ccc(C(=O)O)o1	0.77	–
